Assay results: PubChem BioAssay (NCI)
Values joined by “and” are separate entries in the source; they are usually repeats but may differ in a detail not shown here. Equal entries are not always repeated.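 Cells were grown in 96-well plates and exposed to each compound for 48 hours at five concentrations; endpoints were interpolated linearly between bracketing concentrations, or set to the highest concentration if not reached. GI50 is the concentration that inhibits growth by half. TGI denotes the concentration required for complete inhibition of growth.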

Tests used:
Test in all cases: NCI-60 cell line screen, 48 h
HCC-2998 colon = tested on: HCC-2998 colon
SK-MEL-5 melanoma = tested on: SK-MEL-5 melanoma
DU-145 prostate = tested on: DU-145 prostate
OVCAR-8 ovarian = tested on: OVCAR-8 ovarian
NCI-H226 lung = tested on: NCI-H226 lung
SF-539 CNS = tested on: SF-539 CNS
RPMI-8226 leukemia = tested on: RPMI-8226 leukemia
786-0 renal = tested on: 786-0 renal
UACC-257 melanoma = tested on: UACC-257 melanoma
T-47D breast = tested on: T-47D breast

Row | SMILES | GI50 (HCC-2998 colon) | TGI (HCC-2998 colon) | GI50 (SK-MEL-5 melanoma) | TGI (SK-MEL-5 melanoma) | GI50 (DU-145 prostate) | TGI (DU-145 prostate) | GI50 (OVCAR-8 ovarian) | TGI (OVCAR-8 ovarian) | GI50 (NCI-H226 lung) | TGI (NCI-H226 lung) | GI50 (SF-539 CNS) | TGI (SF-539 CNS) | GI50 (RPMI-8226 leukemia) | TGI (RPMI-8226 leukemia) | GI50 (786-0 renal) | TGI (786-0 renal) | GI50 (UACC-257 melanoma) | TGI (UACC-257 melanoma) | GI50 (T-47D breast) | TGI (T-47D breast)
1 | Nc1nc2c([nH]1)c1[nH]c3ccccc3c1c1[nH]c3ccccc3c21 | 2.26 µM | 5.75 µM | 14 µM | 27 µM | 13.5 µM | 26.4 µM | 4.56 µM | 23.7 µM | 19.8 µM | 45.5 µM | 12.8 µM | 25.6 µM | 9.83 µM | 28.3 µM | 9.44 µM | 22.6 µM | 18.5 µM | 33.4 µM | – | –
2 | Nc1cccc(C(=O)/C=C/c2ccccc2O)c1 | – | > 100 µM | – | > 100 µM | – | – | – | > 100 µM | – | > 100 µM | – | > 100 µM | – | 39.3 µM | – | > 100 µM | – | > 100 µM | – | –
3 | c1ccc2c(c1)n1nnnc1c1nnnn21 | – | > 100 µM | – | > 100 µM | – | – | – | > 100 µM | – | > 100 µM | – | > 100 µM | – | > 100 µM | – | > 100 µM | – | > 100 µM | – | –
4 | COc1ccc([C@H]2c3[nH]c4ccccc4c3C[C@H]3C(=O)N(CCCCCCC(=O)NO)CC(=O)N23)cc1 | 1.15 µM | 5.34 µM | 1.89 µM | 6.89 µM | 1.83 µM | > 33.3 µM | 1.33 µM | > 33.3 µM | 6.26 µM | > 33.3 µM | 2.38 µM | > 33.3 µM | – | – | 11 µM | > 33.3 µM | 1.12 µM | > 33.3 µM | 0.952 µM | 25.6 µM
5 | C=C(c1ccc(C(=O)NCCCn2ccnc2)cc1)c1cc2c(cc1C)C(C)(C)CCC2(C)C | 0.419 µM | 3.85 µM | 1.14 µM | 2.43 µM | 0.744 µM | > 62.5 µM | 2.95 µM | 10.7 µM | 2.1 µM | 7.94 µM | 0.0565 µM | 2.17 µM | – | – | 1.94 µM | 5.45 µM | – | 7.53 µM | 0.281 µM | 6.76 µM
6 | CC(=O)O[C@H]1C(=O)[C@@]2(C)C([C@H](OC(=O)c3ccccc3)[C@]3(O)C[C@H](OC(=O)[C@H](O)[C@@H](NC(=O)c4ccc(Cl)cc4)c4ccccc4)C(C)=C1C3(C)C)C1(OC(C)=O)CO[C@@H]1C[C@@H]2O (some centres not stated) | – | 0.608 µM | – | 13.5 µM | – | 0.452 µM | – | – | – | 25 µM | 0.0119 µM | 0.273 µM and 0.0407 µM | – | 11.7 µM | 0.045 µM | 3.09 µM and 29.7 µM | 0.013 µM | 25 µM and 36.8 µM | – | 25 µM
7 | Cc1ncc([N+](=O)[O-])n1CCOc1ccc(C(=O)/C=C/c2ccc(C(F)(F)F)cc2)cc1 | 5.85 µM | 18.3 µM | 6.1 µM | 20.3 µM | 3.56 µM | 11.9 µM | 2.09 µM | 5.57 µM | 4.25 µM | 20.4 µM | 1.65 µM | 3.07 µM | 1.91 µM | 4.37 µM | 1.87 µM | 3.54 µM | 3.6 µM | 16.5 µM | – | –
8 | O=C(N[C@H]1CC2(C=C(I)C(=O)C(I)=C2)OC1=O)OCc1ccccc1 | – | 34.6 µM | – | 74.6 µM | – | – | – | 31.3 µM | – | 90.3 µM | – | 32 µM | – | > 100 µM | – | 35.2 µM | – | 32.4 µM | – | –
